# Measured values as given in the supplement of paper PMC11451515.
# Columns and labels:
# Conditions in all cases: 48 h
# [1] = system: NOMO1; experiment: cell viability relative to DMSO control; higher = less cytotoxic
# In short: (§1)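 NOMO1 or SEM (500 cells/well) or P12-Ichikawa (1000 cells/well) leukemia cells were adapted for at least four passages in each medium. They were seeded in 1536-well plates (5 μl) and pin-dosed with library compounds in DMSO over an 11-point threefold series, 47 μM to 0.79 nM. CellTiter-Glo One luminescence was read after 48 h at 37°C. Viability is the per-plate percentage relative to DMSO wells, with cell-free wells as background.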
# [2] = system: SEM cells; experiment: as above
# In short: as §1
# [3] = system: P12-Ichikawa; experiment: AUC of viability dose-response curve (% viability x log10 dose units); higher = less sensitive
# In short: (§2)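 Library compounds in DMSO were applied for 48 h at 37°C at 11 threefold doses (47 μM to 0.79 nM) to medium-adapted leukemia cells in 1536-well plates holding 500 or 1000 cells/well. Luminescence from CellTiter-Glo One was normalised plate by plate against DMSO and cell-free wells. Area under the curve came from trapezoidal integration of a log-logistic fit, after scaling curves that rose above full viability and discarding those that failed quality control. The fit had four parameters and used log10 doses.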
# [4] = system: NOMO1; experiment: as above
# In short: as §2
# [5] = system: SEM cells; experiment: as above
# In short: as §2
# [6] = system: P12-Ichikawa; experiment: cell viability relative to DMSO control; higher = less cytotoxic
# In short: as §1
# [7] = RPMI 5 mM glucose + 10% FBS, 0.000781 µM
# [8] = RPMI 5 mM glucose + 10% FBS, 0.00234 µM
# [9] = RPMI 5 mM glucose + 10% FBS, 0.00702 µM
# [10] = RPMI 5 mM glucose + 10% FBS, 0.0211 µM
# [11] = RPMI 5 mM glucose + 10% FBS, 0.0632 µM
# [12] = RPMI 5 mM glucose + 10% FBS, 0.19 µM
# [13] = RPMI 5 mM glucose + 10% FBS, 0.569 µM
# [14] = RPMI 5 mM glucose + 10% FBS, 1.71 µM
# [15] = RPMI 5 mM glucose + 10% FBS, 5.12 µM
# [16] = RPMI 5 mM glucose + 10% FBS, 15.4 µM
# [17] = RPMI 5 mM glucose + 10% FBS, 46.1 µM
# [18] = HPLM + 10% dialyzed FBS, 0.000781 µM
# [19] = HPLM + 10% dialyzed FBS, 0.00234 µM
# [20] = HPLM + 10% dialyzed FBS, 0.00702 µM
# [21] = HPLM + 10% dialyzed FBS, 0.0211 µM
# [22] = HPLM + 10% dialyzed FBS, 0.0632 µM
# [23] = HPLM + 10% dialyzed FBS, 0.19 µM
# [24] = HPLM + 10% dialyzed FBS, 0.569 µM
# [25] = HPLM + 10% dialyzed FBS, 1.71 µM
# [26] = HPLM + 10% dialyzed FBS, 5.12 µM
# [27] = HPLM + 10% dialyzed FBS, 15.4 µM
# [28] = HPLM + 10% dialyzed FBS, 46.1 µM
# [29] = RPMI 5 mM glucose + 10% dialyzed FBS, 0.000781 µM
# [30] = RPMI 5 mM glucose + 10% dialyzed FBS, 0.00234 µM
# [31] = RPMI 5 mM glucose + 10% dialyzed FBS, 0.00702 µM
# [32] = RPMI 5 mM glucose + 10% dialyzed FBS, 0.0211 µM
# [33] = RPMI 5 mM glucose + 10% dialyzed FBS, 0.0632 µM
# [34] = RPMI 5 mM glucose + 10% dialyzed FBS, 0.19 µM
# [35] = RPMI 5 mM glucose + 10% dialyzed FBS, 0.569 µM
# [36] = RPMI 5 mM glucose + 10% dialyzed FBS, 1.71 µM
# [37] = RPMI 5 mM glucose + 10% dialyzed FBS, 5.12 µM
# [38] = RPMI 5 mM glucose + 10% dialyzed FBS, 15.4 µM
# [39] = RPMI 5 mM glucose + 10% dialyzed FBS, 46.1 µM
# [40] = RPMI 5 mM glucose + 10% dialyzed FBS
smiles,measurement,setting,value
Nc1ccn([C@H]2CS[C@@H](CO)O2)c(=O)n1,cell viability,[1]; [7],112%
same,cell viability,[1]; [8],122%
same,cell viability,[1]; [9],144%
same,cell viability,[1]; [10],133%
same,cell viability,[1]; [11],135%
same,cell viability,[1]; [12],138%
same,cell viability,[1]; [13],139%
same,cell viability,[1]; [14],148%
same,cell viability,[1]; [15],133%
same,cell viability,[1]; [16],140%
same,cell viability,[1]; [17],145%
same,cell viability,[2]; [18],81.2%
same,cell viability,[2]; [19],108%
same,cell viability,[2]; [20],109%
same,cell viability,[2]; [21],122%
same,cell viability,[2]; [22],137%
same,cell viability,[2]; [23],126%
same,cell viability,[2]; [24],123%
same,cell viability,[2]; [25],129%
same,cell viability,[2]; [26],123%
same,cell viability,[2]; [27],101%
same,cell viability,[2]; [28],147%
same,cell viability,[2]; [7],101%
same,cell viability,[2]; [8],116%
same,cell viability,[2]; [9],108%
same,cell viability,[2]; [10],135%
same,cell viability,[2]; [11],157%
same,cell viability,[2]; [12],138%
same,cell viability,[2]; [13],141%
same,cell viability,[2]; [14],130%
same,cell viability,[2]; [15],144%
same,cell viability,[2]; [16],153%
same,cell viability,[2]; [17],144%
same,cell viability,[2]; [29],104%
same,cell viability,[2]; [30],136%
same,cell viability,[2]; [31],117%
same,cell viability,[2]; [32],134%
same,cell viability,[2]; [33],144%
same,cell viability,[2]; [34],138%
same,cell viability,[2]; [35],139%
same,cell viability,[2]; [36],135%
same,cell viability,[2]; [37],138%
same,cell viability,[2]; [38],110%
same,cell viability,[2]; [39],135%
same,AUC of viability dose-response curve,[3]; HPLM + 10% dialyzed FBS,440
same,AUC of viability dose-response curve,[3]; RPMI 5 mM glucose + 10% FBS,471
same,AUC of viability dose-response curve,[3]; [40],464
same,AUC of viability dose-response curve,[4]; HPLM + 10% dialyzed FBS,459
same,AUC of viability dose-response curve,[4]; RPMI 5 mM glucose + 10% FBS,464
same,AUC of viability dose-response curve,[4]; [40],472
same,AUC of viability dose-response curve,[5]; HPLM + 10% dialyzed FBS,454
same,AUC of viability dose-response curve,[5]; RPMI 5 mM glucose + 10% FBS,445
same,AUC of viability dose-response curve,[5]; [40],470
CC[C@H]1CN2CCc3cc(OC)c(OC)cc3[C@@H]2C[C@@H]1C[C@H]1NCCc2cc(OC)c(OC)cc21,cell viability,[6]; [18],111%
same,cell viability,[6]; [19],116%
same,cell viability,[6]; [20],108%
same,cell viability,[6]; [21],103%
same,cell viability,[6]; [22],92.5%
same,cell viability,[6]; [23],77.1%
same,cell viability,[6]; [24],39.7%
same,cell viability,[6]; [25],25.7%
same,cell viability,[6]; [26],28.8%
same,cell viability,[6]; [27],21.1%
same,cell viability,[6]; [28],16.1%
same,cell viability,[6]; [7],96.8%
same,cell viability,[6]; [8],107%
same,cell viability,[6]; [9],104%
same,cell viability,[6]; [10],102%
same,cell viability,[6]; [11],93.3%
same,cell viability,[6]; [12],69.4%
same,cell viability,[6]; [13],28.9%
same,cell viability,[6]; [14],16.6%
same,cell viability,[6]; [15],14.8%
same,cell viability,[6]; [16],13.4%
same,cell viability,[6]; [17],11.1%
same,cell viability,[6]; [29],103%
same,cell viability,[6]; [30],113%
same,cell viability,[6]; [31],109%
same,cell viability,[6]; [32],108%
same,cell viability,[6]; [33],103%
same,cell viability,[6]; [34],80.3%
same,cell viability,[6]; [35],56.5%
same,cell viability,[6]; [36],29.6%
same,cell viability,[6]; [37],19.4%
same,cell viability,[6]; [38],14.1%
same,cell viability,[6]; [39],13.6%
same,cell viability,[1]; [18],95.5%
same,cell viability,[1]; [19],105%
same,cell viability,[1]; [20],101%
same,cell viability,[1]; [21],107%
same,cell viability,[1]; [22],104%
same,cell viability,[1]; [23],98.5%
same,cell viability,[1]; [24],54.7%
same,cell viability,[1]; [25],22.7%
same,cell viability,[1]; [26],8.84%
same,cell viability,[1]; [27],10.8%
same,cell viability,[1]; [28],7.47%
same,cell viability,[1]; [7],103%
same,cell viability,[1]; [8],127%
same,cell viability,[1]; [9],122%
same,cell viability,[1]; [10],109%
same,cell viability,[1]; [11],121%
same,cell viability,[1]; [12],111%
same,cell viability,[1]; [13],50.4%
same,cell viability,[1]; [14],27%
same,cell viability,[1]; [15],11.4%
same,cell viability,[1]; [16],9.75%
same,cell viability,[1]; [17],8.48%
same,cell viability,[1]; [29],106%
same,cell viability,[1]; [30],102%
same,cell viability,[1]; [31],98.3%
same,cell viability,[1]; [32],123%
same,cell viability,[1]; [33],118%
same,cell viability,[1]; [34],109%
same,cell viability,[1]; [35],47.5%
same,cell viability,[1]; [36],27.8%
same,cell viability,[1]; [37],14.9%
same,cell viability,[1]; [38],9.41%
same,cell viability,[1]; [39],8.82%
same,cell viability,[2]; [18],40.6%
same,cell viability,[2]; [19],88.1%
same,cell viability,[2]; [20],71.5%
same,cell viability,[2]; [21],73.9%
same,cell viability,[2]; [22],89.7%
same,cell viability,[2]; [23],38.6%
same,cell viability,[2]; [24],11.8%
same,cell viability,[2]; [25],10.1%
same,cell viability,[2]; [26],7.04%
same,cell viability,[2]; [27],7.04%
same,cell viability,[2]; [28],6.06%
same,cell viability,[2]; [7],46.7%
same,cell viability,[2]; [8],94.3%
same,cell viability,[2]; [9],67.6%
same,cell viability,[2]; [10],79.9%
same,cell viability,[2]; [11],90.9%
same,cell viability,[2]; [12],61%
same,cell viability,[2]; [13],14.7%
same,cell viability,[2]; [14],11%
same,cell viability,[2]; [15],8.47%
same,cell viability,[2]; [16],9.05%
same,cell viability,[2]; [17],7.9%
same,cell viability,[2]; [29],35.8%
same,cell viability,[2]; [30],99.2%
same,cell viability,[2]; [31],74.9%
same,cell viability,[2]; [32],96%
same,cell viability,[2]; [33],113%
same,cell viability,[2]; [34],67.8%
same,cell viability,[2]; [35],22.2%
same,cell viability,[2]; [36],13%
same,cell viability,[2]; [37],9.62%
same,cell viability,[2]; [38],9.49%
same,cell viability,[2]; [39],8.97%
same,AUC of viability dose-response curve,[3]; HPLM + 10% dialyzed FBS,289
same,AUC of viability dose-response curve,[3]; RPMI 5 mM glucose + 10% FBS,279
same,AUC of viability dose-response curve,[3]; [40],300
same,AUC of viability dose-response curve,[4]; HPLM + 10% dialyzed FBS,305
same,AUC of viability dose-response curve,[4]; RPMI 5 mM glucose + 10% FBS,300
same,AUC of viability dose-response curve,[4]; [40],305
same,AUC of viability dose-response curve,[5]; HPLM + 10% dialyzed FBS,193
same,AUC of viability dose-response curve,[5]; RPMI 5 mM glucose + 10% FBS,214
same,AUC of viability dose-response curve,[5]; [40],240
